In test [1] the test system is embryonic day 13 or 14 chick DRG neurons. The experiment in a line: Neurite outgrowth assay, E13/E14 chick DRG neurons. It counts as cell-based, chicken. The conditions noted are these: 20 μM; for neurite outgrowth compared to the DMSO control: E13 or E14 chick DRG, two to four hours. As for the experimental part: (§1) To test the ability of the “hit” compounds to promote neurite outgrowth, a neurite outgrowth assay was performed using each of these compounds. Dorsal root ganglia (DRG) were removed from chicken embryos at embryonic day 13 or 14, dissociated by trituration after 30 min incubation in 0.5% collagenase, and plated on laminin-coated 96-well tissue culture plates in DMEM with 10% fetal bovine serum containing 20 μM of the test compound. After two to four hours of incubation, the cells were fixed in 4% formaldehyde in phosphate buffered saline (PBS), washed in PBS, and blocked for 1 hour in PBS with 0.1% triton X-100 and 10% goat serum. The cells were incubated in rabbit anti-beta-3-tubulin (1:500) in PBS overnight and then washed 3 times with PBS. The cells were then incubated in Alexa-fluor 488 goat anti-rabbit IgG (1:500) for 6 hrs, washed with PBS, and imaged at 10× with an ImagExpress automated microscope (Molecular Devices, Inc.). Neurite outgrowth was measured with AcuityExpress software (Molecular Devices, Inc.).

The subject of test [2] is Nogo receptor:Nogo ligand (Nogo 66) interaction. Description: ELISA assay of NgR:Nogo ligand interaction. The format is binding. As for the experimental part:
In the ELISA assay, 96 well streptavidin coated plates were blocked overnight with PBS and 10 mg/ml bovine serum albumin (BSA) (200 μl). The wells were then coated for 1.5 hours with sonicated HBH (Hanks Balanced Salt Solution/0.1 M HEPES/1 mg/ml BSA) containing Nogo 66 (B66) (0.5 μl of 10 mM/10 ml HBH) (50 μl) and then washed 4 times with 200 μl of HBH. The solution containing the inhibitor compound (50 μl in HBH) was added along with 1% FcNgR solution in HBH (50 μl), and the solution was incubated for 2 hours. The wells were washed 5 times with HBH. Alkaline phosphatase (AP) conjugated mouse anti-rat antibody (1:2500) was added and the wells were then washed 5 times with HBH. Colorimetric alkaline phosphatase substrate was added for 30 minutes and the plate was read with the Perkin Elmer Victor 5 instrument. (FIG. 10A). […] (FIG. 10C).

Test [3] relates to embryonic day 13 (E13) chick DRG neurons. The experiment in a line: Competition neurite outgrowth assay with soluble FcNgR. The format is cell-based, chicken. The conditions noted are these: for outgrowth promoting effect when coadministered with FcNgR: with 7.5 μM FcNgR, 3.5 hours. As for the experimental part: as §1
To further verify the mechanism of how the compounds are promoting neurite outgrowth, a competition assay was performed. […] (FIG. 12B). compounds KM, HTS or 555 were then coadministered with 7.5 μM of FcNgR. […] (FIGS. 14A-B and 17B).

The subject of test [4] is Nogo receptor:Nogo ligand (Nogo 66) interaction. The experiment in a line: DELFIA assay of Fc-NgR:Ng66 interaction. It counts as binding. As for the experimental part:
ELISA and DELFIA assays were then performed to evaluate the ability of the small molecules that were identified as “hits” in the AlphaScreens to inhibit the interaction of NgR and Nogo ligand. In the DELFIA Assay, 96 well streptavidin coated plates were blocked overnight with PBS and 10 mg/ml bovine serum albumin (BSA) (200 μl). The wells were then coated for 1.5 hours with sonicated HBH (Hanks Balanced Salt Solution/0.1 M HEPES/1 mg/ml BSA) containing Nogo 66 (B66) (0.5 μl of 10 mM/10 ml HBH) (50 μl) and then washed 4 times with 200 μl of HBH. The solution containing the inhibitor compound (50 μl in HBH) was added along with 1% FcNgR solution in HBH (50 μl), and the solution was incubated for 2 hours. The wells were washed 5 times with HBH. Alkaline phosphatase (AP) conjugated mouse anti-rat antibody (1:2500) was added and the wells were then washed 5 times with DELFIA wash buffer. The Europium (Eu) anti-mouse antibody was then added in Perlin Elmer Assay, buffer (100 μg/ml) (150 μl) and the wells were again washed 5 times with DELFIA wash buffer. The enhancer solution was added (100 μl) and the plate was read with the Perkin Elmer Victor 5 instrument 15 minutes later. (FIG. 10B) The results from the DELFIA assay indicate that compounds HTS08871, KM08071, and 503749, as well as the positive control, NEP33, inhibit the Nogo receptor:Nogo ligand (Nogo 66) interaction. (FIGS. 10D and 11A-C).

The subject of test [5] is embryonic day 8 (E8) chick DRG neurons. The experiment in a line: Neurite outgrowth assay, E8 chick DRG neurons (no Nogo receptor expressed). The format is cell-based, chicken. The following applies: Nogo receptor not yet expressed. As for the experimental part: as §1
In another experiment to verify the mechanism of action, a neurite outgrowth assay was performed as described above except the Dorsal root ganglia (DRG) were removed from chicken embryos at embryonic day 8 instead of day 13. At day 8, Nogo receptor is not yet expressed in the DRG. The compounds KM, HTS, 555, 5470, 585 were administered as described above and neurite outgrowth was measured. […] (FIG. 21)

For the next test, the system named is Fc-NgR:Ng66 interaction. The experiment in a line: AlphaScreen of Fc-NgR:Ng66 interaction. The format is binding. The text has this: An AlphaScreen assay was used to screen for small molecule inhibitors of the Nogo receptor-Nogo ligand interaction. The AlphaScreen assay involves matching Alpha Donor (Streptavidin) and Acceptor beads (Protein A). (FIG. 1) These beads are coated with a layer of hydrogel to provide functional groups for bioconjugation. […] However, if a biological reaction brings the Alpha Donor and Acceptor beads into close proximity, upon laser excitation, a cascade of chemical reactions produces a greatly amplified signal. (FIG. 3) Upon laser excitation, a photosensitizer inside the Donor bead converts ambient oxygen to a more excited singlet state. The singlet state oxygen molecules diffuse to produce a chemiluminescent reaction in the Acceptor bead, leading to light emission. In the absence of a specific biological interaction, the singlet state oxygen molecules produced by the Donor bead go undetected without the close proximity of the Acceptor bead.
Beads conjugated to streptavidin were used to bind biotinylated Nogo 66 (Ng66) (the 66 amino acid inhibitory domain in the carboxyl region of Nogo ligand), and beads conjugated to Protein A were used to bind an Fc-Nogo receptor (NgR) fusion protein. (FIG. 2) By virtue of the interaction of Ng66 and Fc-NgR, the acceptor beads and donor beads were brought into proximity, yielding a signal upon excitation. […] (FIGS. 4 and 6). […]

The record followed here is patent US20110065715A1, “Nogo Receptor Binding Small Molecules to Promote Axonal Growth” (Yale University, priority 2007, published 2011).

“Also recorded” adds a separate entry of the source. Like-named read-outs stand apart in the source and are kept apart here.

Sequence of Fc-NgR:Ng66 interaction (Q99M75 27-310 limits assumed): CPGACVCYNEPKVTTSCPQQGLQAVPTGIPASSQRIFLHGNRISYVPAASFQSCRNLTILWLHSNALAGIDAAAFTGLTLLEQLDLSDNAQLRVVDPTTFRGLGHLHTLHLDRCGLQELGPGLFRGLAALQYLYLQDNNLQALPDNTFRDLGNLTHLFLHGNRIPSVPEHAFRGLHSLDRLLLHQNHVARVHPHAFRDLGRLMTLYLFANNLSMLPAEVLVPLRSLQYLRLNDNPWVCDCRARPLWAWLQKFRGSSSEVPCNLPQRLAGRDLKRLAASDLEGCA

In the case of `CN(C)c1ccc(Cc2ccc(N(C)C)cc2)cc1` [BTB11222, N1,N1-dimethyl-4-[4-(dimethylamino)benzyl]aniline], in test [1], the “neurite outgrowth compared to the DMSO control” value is “promoted neurite outgrowth”.
`N.N.[Cl][Pt][Cl]` [Cisplatin]: in test [2], the “inhibition of Nogo receptor:Nogo 66 interaction, ELISA” value is listed as “inhibit”.
For the compound `COc1ccc2c(c1)NC(c1ccc(N(C)C)cc1)c1cccn1-2` (centres unmarked) [HTS, 4′-(7-methoxy-4,5-dihydropyrrolo[1,2-a]quinoxalin-4-yl)-N,N-dimethylaniline], in test [3], the “neurite outgrowth in the absence of exogenous FcNgR” value (“neurite outgrowth in the absence” below) was “promoted neurite outgrowth” and the “outgrowth promoting effect when coadministered with FcNgR” value (from here on “outgrowth promoting effect”) is reported as “inhibited; also recorded: blocking”. Also, the “inhibition of Nogo receptor:Nogo 66 interaction signal, DELFIA” value (“inhibition … DELFIA” for short) in test [4] is recorded as “dose dependent signal inhibition”. Besides, the “inhibition … DELFIA” value in test [4] (listed as HTS08871) is given as “inhibit”. The “effect on neurite outgrowth of day 8 DRGs” value (from here on “effect on neurite outgrowth”) in test [5] is on record as “no effect”. Further, the “neurite outgrowth compared to the DMSO control” value in test [1] is “promoted neurite outgrowth”.
On to `N#C/C(=C\c1ccc(C#Cc2ccccc2)cc1)C(=O)c1ccc(Cl)cc1` [KM, 2-(4-chlorobenzoyl)-3-[4-(2-phenyleth-1-ynyl)phenyl]acrylonitrile], for which, in test [3], the “neurite outgrowth in the absence” value is “promoted neurite outgrowth” and the “outgrowth promoting effect” value is on record as “inhibited; also recorded: blocking”. In addition, in test [4], the “inhibition … DELFIA” value is “dose dependent signal inhibition”. The “inhibition … DELFIA” value in test [4] (listed as KM08071) is reported as “inhibit”. Besides, the “effect on neurite outgrowth” value in test [5] is recorded as “no effect”. In test [1], the “basal neurite outgrowth, E13 chick DRG neurons” value is “neurite outgrowth promoting effect” and the “neurite outgrowth compared to the DMSO control” value is recorded as “promoted neurite outgrowth”.
`Cc1nccc(-c2cccc(N/N=C(\C#N)C(=O)c3ccc(Cl)cc3)c2)n1` [KMO2502]: in test [1], the “neurite outgrowth compared to the DMSO control” value was “inhibited neurite outgrowth”.
For the compound `N#Cc1ccc(Cn2c(=O)sc3ccccc32)cc1` [compound 535, 4-[(2-oxo-1,3-benzothiazol-3(2H)-yl)methyl]benzonitrile], the “neurite outgrowth compared to the DMSO control” value in test [1] was “promoted neurite outgrowth”.
On to `CN(C)c1ccc(C2C=Cc3ccccc3N2C(=O)c2ccccc2)cc1` (centres unmarked) [compound 536, 4-(1-benzoyl-1,2-dihydro-2-quinolinyl)-N,N-dimethylaniline], for which, in test [1], the “neurite outgrowth compared to the DMSO control” value is listed as “promoted neurite outgrowth”.
`CCOC(=O)C1=C(C)N=C2SCC(=O)N2C1c1ccc(N(C)C)cc1` (centres unmarked) [compound 555, ethyl 5-[4-(dimethylamino)phenyl]-7-methyl-3-oxo-2,3-dihydro-5H-[1,3]thiazolo[3,2-a]pyrimidine-6-carboxylate]: in test [3], the “neurite outgrowth in the absence” value was “promoted neurite outgrowth” and the “outgrowth promoting effect” value is reported as “inhibited; also recorded: blocking”. For the same compound, in test [5], the “effect on neurite outgrowth” value is recorded as “no effect”. In addition, in test [1], the “basal neurite outgrowth, E13 chick DRG neurons” value is “neurite outgrowth promoting effect” and the “neurite outgrowth compared to the DMSO control” value is given as “promoted neurite outgrowth”.
For `Cc1oc2ccc(O)cc2c1C(=O)c1ccc(Cl)cc1` [compound 585, (4-chlorophenyl)(5-hydroxy-2-methyl-1-benzofuran-3-yl)methanone], the “effect on neurite outgrowth” value in test [5] is given as “no effect”. In addition, in test [1], the “neurite outgrowth compared to the DMSO control” value is “promoted neurite outgrowth” and the “basal neurite outgrowth, E14 chick DRG neurons” value is recorded as “neurite outgrowth promoting effect”.
For the compound `CN1C(=O)C(O)(CC(=O)c2ccc(Cl)cc2)c2ccccc21` (centres unmarked) [compound 592, 3-[2-(4-chlorophenyl)-2-oxoethyl]-3-hydroxy-1-methyl-1,3-dihydro-2H-indol-2-one], the “neurite outgrowth compared to the DMSO control” value in test [1] is “inhibited neurite outgrowth”.
Still for that read-out and setting: in the case of `CCN1C(=O)C(O)(CC(=O)c2ccc(Cl)cc2)c2ccccc21` (centres unmarked) [compound 664, 3-[2-(4-chlorophenyl)-2-oxoethyl]-1-ethyl-3-hydroxy-1,3-dihydro-2H-indol-2-one] it was “inhibited neurite outgrowth”.
Turning to `CCc1cccc2c(C(C)=O)cn(Cc3ccc(C#N)cc3)c12` [compound 794, 4-[(3-acetyl-7-ethyl-1H-indol-1-yl)methyl]benzonitrile], the “neurite outgrowth compared to the DMSO control” value in test [1] was “promoted neurite outgrowth”.
On to `O=C(c1ccc(Cl)cc1)c1coc2ccc(O)cc12` [compound 5470, (4-chlorophenyl)(5-hydroxy-1-benzofuran-3-yl)methanone], for which the “effect on neurite outgrowth” value in test [5] is “no effect”. In test [1], the “neurite outgrowth compared to the DMSO control” value is given as “promoted neurite outgrowth” and the “basal neurite outgrowth, E14 chick DRG neurons” value is “neurite outgrowth promoting effect”.
Turning to `Cc1ccc2occ(C(=O)c3ccc(Cl)cc3)c(=O)c2c1` [compound 5472, 3-(4-chlorobenzoyl)-6-methyl-4H-chromen-4-one], the “neurite outgrowth compared to the DMSO control” value in test [1] was “promoted neurite outgrowth”.
Same read-out and setting: the result for `O=C(CC1(O)C(=O)Nc2ccc(Br)cc21)c1ccc(Cl)cc1` (centres unmarked) [compound 5475, 5-bromo-3-[2-(4-chlorophenyl)-2-oxoethyl]-3-hydroxy-1,3-dihydro-2H-indol-2-one] reads “inhibited neurite outgrowth”.
For the compound “Acetyl-RIYKSVLQAVQKTDEGHPFKAYLELEITLSQEQ-Amide (Ac-RIYKSVLQAVQKTDEGHPFKAYLELEITLSQEQ-NH2) [NEP33]”, the “interference with Ng66:Fc-NgR interaction (AlphaScreen signal)” value in the test with Fc-NgR:Ng66 interaction is listed as “reducing signal”. Moreover, the “inhibition of interaction of Ng66 and Fc-NgR (AlphaScreen signal)” value in the test on Fc-NgR:Ng66 interaction (20 hours incubation, concentration between 1.25 μM and 20 μM, beads 5 μg/ml) is “inhibited”. In addition, the “inhibition of Nogo receptor:Nogo 66 interaction, ELISA” value in test [2] is listed as “inhibit”. Also, in test [4], the “inhibition … DELFIA” value is listed as “inhibit”.
